Measurements: patent US11964943B2, “3,5-diarylidenyl-n-substituted-piperid-4-one-derived inhibitors of Stat3 pathway activity and uses thereof” (priority 2017, dated 2024)
In brackets after ≈: the same amount, converted by molar mass. Several values for one entry are separate records, joined by “and”; a condition that tells them apart may be missing. Equal entries are not always repeated. Where two headings read alike, the source gives them in different places. One block for each molecule: values may come before it.

Tests used:
[1] = tested on: HCT116-oxaliplatin resistant spheroids; assay: CellTiter-Glo 3D cell viability assay, HCT116-oxaliplatin resistant spheroids; assay type: cell-based; conditions: 96 h exposure, 3D CellTiter-Glo
Description: (§1) For cell spheroid formation, HCT116-oxaliplatin resistant cells, A2780-cisplatin resistant cells, and HT1080 cells were seeded in Corning® Spheroid opaque-walled 96 well Microplates (ultra-low attachment; Nuclon™ Sphera™, Thermofisher) at densities of 2000 cells/well in 100 μl of cell solution and allowed to grow for 4 days, before any manipulation.
(§2) Spheroid cells were treated by adding 100 μl of 2-fold the desired compound concentration and incubated at 37° C. for 96 h. At the end of drug incubation, both the plates and the CellTitre-Glo® reagent (previously thawn overnight in the fridge) were equilibrated at room temperature for at least 30 min. Subsequently, 100 μl of cell solution were carefully removed from each well, without disrupting the spheroid and equal volume of CellTitre-Glo® reagent was added. Cell lysis was performed by vigorously shaking the plate for 5 min. To stabilize the luminescent signal, the plate was incubated in the dark at RT for another 30 min before luminescence was recorded on a plate reader. The cell viability of treated samples was normalised to the untreated controls.
(§3) The cytotoxicity studies in spheroids were conducted using the CellTiter-Glo® 3D Cell viability assay (Promega) following the instructions of the manufacturer.

[2] = tested on: A2780-cisplatin resistant spheroids; assay: CellTiter-Glo 3D cell viability assay, A2780-cisplatin resistant spheroids; assay type: cell-based; conditions: 96 h exposure, 3D CellTiter-Glo
Description: as §1
as §2, with “At” for “Spheroid cells were treated by adding 100 μl of 2-fold the desired compound concentration and incubated at 37° C. for 96 h. At”
as §3

DU145 cells = assay: SRB growth inhibition and combination index with cisplatin, DU145; assay type: cell-based
Description: (§4) The affected fractions were calculated from the SRB or MTT assay absorbance values and were registered to derive the respective CI values and isobolograms. A CI value of less than 1 (one) indicates synergy.
(§5) The SRB assay was used to assess cell growth inhibition by IE-8 alone and in combination with cisplatin. […] For combination studies drug treatments were sequential with IE-8 applied first followed by cisplatin for 1 h. […] Absorbance was read at 540 nm and results were normalized to untreated controls. For analysis of GC50 values and statistical significance, non-linear regression analysis with a comparison of fits was performed with the GraphPad Prism 6.0 software.
as §5, with “Drug Combination studies. Sulforhodamine B (SRB) Cell Growth Inhibition Assay. The” for “The”, “8 h” for “IE-8”

[3] = tested on: A2780-cisplatin resistant spheroids; assay: Spheroid diameter measurement; assay type: cell-based; conditions: 96 h
Description: as §1
The diameters of spheroid cells were determined using Cell^F Imaging Software. A diameter corresponds to the mean value of one horizontal and one vertical measurement.

A549 cells = assay: SRB growth inhibition and combination index with cisplatin, A549; assay type: cell-based, human
Description: as §4, §5
as §5, with “Drug Combination studies. Sulforhodamine B (SRB) Cell Growth Inhibition Assay. The” for “The”, “8 h” for “IE-8”

[4] = tested on: MDA-MB-435 cancer cell line; assay: SRB antiproliferative assay, MDA-MB-435; assay type: cell-based, human; conditions: Homo sapiens, MDA-MB-435, 48 h exposure
[5] = Aqueous solubility (MultiScreen Solubility Filter Plate, shake-flask based); conditions: aqueous buffer with 5% DMSO, pH 7.4, aqueous with cosolvent or surfactant or cyclodextrin, kinetic from dmso stock
L1210 (lymphoma) cells = assay: MTT cytotoxicity assay, L1210 cells
B16 (melanoma) cells = assay: MTT cytotoxicity assay, B16 cells
pStat3^Tyr705 = assay: Immunoblotting of phosphorylated Stat3 in cancer cells; assay type: cell-based, human; conditions: DU145 and A549 cells with constitutively active Stat3, 18 h
Description: (§6) Whole cell lysates were prepared by incubation of harvested, trypsinised cells with CelLytic™ lysis buffer (Sigma-Aldrich) supplemented with 1× protease and 1× phosphatase inhibitors (Roche). Protein quantification was carried out using a protein assay kit (Bio-Rad). 40 μg of the lysates were denatured by heating for 5 min at 95° C. in sample buffer containing 100 mM Tris-Cl (pH 6.8), 4% SDS, 10% 2-mercaptoethanol, 20% glycerol, and 0.02% bromophenol blue. Precision Plus Protein Dual colour standards (Bio-Rad) were used as a molecular weight reference. For the detection of STAT3, pSTAT3, α/β tubulin, cleaved PARP, Bcl-2, Bcl-xL, FANCD2, BRCA1, EME1 and MUS81, proteins were separated on a NuPAGE 7% Tris-acetate gel (Life Technologies) and subsequently transferred to polyvinylidene difluoride membranes (Immobilon®-P transfer membrane; Millipore). […] Membranes were blocked for 1 h at ambient temperature in a blocking buffer containing 5% w/v Bovine Serum Albumin (BSA; Sigma-Aldrich) in 1×TBS, 0.1% Tween-20. All proteins were identified by incubation in a 1:1000 dilution of the respective polyclonal antibodies (Cell signaling) in blocking buffer overnight at 4° C. and subsequent incubation for 1 h with an anti-rabbit or anti-mouse secondary antibody (Cell signalling) at a dilution of 1:1000. The α/β tubulin (1:2000; Cell Signaling) and the anti-phospho-histone H2AX Antibody (1:500; Millipore) were used in the denoted dilutions. Antibody binding was visualized by enhanced chemiluminescence (Amersham) on autoradiography film (Kodak-X-Omat). Alternatively Images were captured by the GelDoc-It Imaging System Fusion Fx7 (Vilber Lourmat, Germany).
as §6, with “Immunoblotting. Whole” for “Whole”, “CelLytic™ M” for “CelLytic™”, “pSTAT3, a/0” for “pSTAT3, α/β”, “in 1×TBS” for “in 1×TBS,”, “(Cell signalling)” for “(Cell signaling)”

[6] = cisplatin alone 1 h, 96 h total, SRB
[7] = Mus musculus, L1210, 72 h, read-out: IC50 (μM) L1210, 72 h exposure, MTT, mean of three independent experiments
[8] = Mus musculus, B16, 72 h, read-out: IC50 (μM) B16, 72 h exposure, MTT, mean of three independent experiments
[9] = read-out: IC50 (μM) L1210, 72 h exposure, MTT, mean of three independent experiments
[10] = read-out: IC50 (μM) B16, 72 h exposure, MTT, mean of three independent experiments

SMILES: O=C1C(O)=C([C@H]2CC[C@H](c3ccc(Cl)cc3)CC2)C(=O)c2ccccc21 [Atovaquone, reference compound]
IC50 [1]: 16.5 µM
IC50 [2]: 24.4 ± 3.36 µM

SMILES: N.N.[Cl][Pt][Cl] [Cisplatin, reference compound]
IC50 (DU145 cells; [6]): 49.2 µM and 49.3 µM
Diameter (μm) ([3]; cisplatin 1.75 μM): 1071.4 μm
Diameter (μm) ([3]; cisplatin 3.5 μM): 1047.5 μm
Diameter (μm) ([3]; cisplatin 5.25 μM): 916.4 μm
Diameter (μm) ([3]; cisplatin 7.0 μM): 833.6 μm
Diameter (μm) ([3]; cisplatin 7.0 μM, listed as cisplatin): 834 μm
Diameter (μm) ([3]; cisplatin 8.75 μM): 713.0 μm
IC50 (A549 cells; [6]): 77.8 µM and 64.6 µM

SMILES: COc1cc(/C=C/C(=O)CC(=O)/C=C/c2ccc(O)c(OC)c2)ccc1O [Curcumin]
IC50 [2]: 37 ± 9.4 µM

SMILES: CC1(C)C=C(CN2C/C(=C\c3ccc(F)cc3)C(=O)/C(=C/c3ccc(F)cc3)C2)C(C)(C)N1O [HO-3867, reference compound]
IC50 [1]: 33 µM
IC50 [2]: 29.7 ± 7.81 µM

SMILES: COc1cc(/C=C2\CNC/C(=C\c3cc(OC)c(OC)c(OC)c3)C2=O)cc(OC)c1OC [IA-8]
IC50 [4]: 0.088 µM
solubility at 6 h [5]: 70 ± 10 µM (≈ 31.9 µg/mL)
IC50 (L1210 (lymphoma) cells; [7]): 0.32 µM
IC50 (L1210 (lymphoma) cells; read-out: IC50 (μM) L1210, 72 h exposure, MTT, mean of three independent experiments, listed as 4h): ~0.3 µM
IC50 (B16 (melanoma) cells; [8]): 0.3 µM

SMILES: COc1cc(/C=C2\CN(C)C/C(=C\c3cc(OC)c(OC)c(OC)c3)C2=O)cc(OC)c1OC [IB-8]
IC50 [4]: 0.19 µM
solubility at 6 h [5]: 160 ± 30 µM (≈ 75.1 µg/mL)
IC50 (L1210 (lymphoma) cells; [7]): 0.37 µM
IC50 (L1210 (lymphoma) cells; read-out: IC50 (μM) L1210, 72 h exposure, MTT, mean of three independent experiments, listed as 5 h): ~0.3 µM
IC50 (B16 (melanoma) cells; [8]): 0.31 µM
IC50 (B16 (melanoma) cells; read-out: IC50 (μM) B16, 72 h exposure, MTT, mean of three independent experiments, listed as 5 h): ~0.3 µM

SMILES: COc1ccc(/C=C2\CN(C(C)C)C/C(=C\c3ccc(OC)c(O)c3)C2=O)cc1O [IC-5, 3,5-Di(3-hydroxy-4-methoxylbenzyliden)-1-isopropylpiperidin-4-one]
IC50 (L1210 (lymphoma) cells; [7]): 0.4 µM
melting point: 165 to 168 °C
IC50 (B16 (melanoma) cells; [8]): 1.1 µM

SMILES: COc1cc(/C=C2\CN(Cc3ccccc3)C/C(=C\c3cc(OC)c(OC)c(OC)c3)C2=O)cc(OC)c1OC [ID-8]
IC50 [4]: 0.76 µM
solubility at 6 h [5]: 210 ± 20 µM (≈ 115 µg/mL)
IC50 (L1210 (lymphoma) cells; [7]): 3.6 µM
IC50 (B16 (melanoma) cells; [8]): 2.4 µM

SMILES: Cc1ccc(/C=C2\CN(c3ccccc3)C/C(=C\c3ccc(C)cc3)C2=O)cc1 [IE-2, 3,5-Di(4-methylbenzylidene)-1-phenylpiperidin-4-one]
IC50 (L1210 (lymphoma) cells; [7]): > 100 µM
melting point: 173 to 176 °C
IC50 (B16 (melanoma) cells; [8]): > 100 µM

SMILES: O=C1/C(=C/c2ccc([N+](=O)[O-])cc2)CN(c2ccccc2)C/C1=C\c1ccc([N+](=O)[O-])cc1 [IE-3, 3,5-Di(4-nitrobenzylidene)-1-phenylpiperidin-4-one]
IC50 (L1210 (lymphoma) cells; [9]): 65 ± 7 µM
melting point: 184 to 188 °C
IC50 (B16 (melanoma) cells; [10]): 65 ± 7 µM

SMILES: COc1ccc(/C=C2\CN(c3ccccc3)C/C(=C\c3ccc(OC)cc3)C2=O)cc1 [IE-4, 3,5-Di(4-methoxybenzylidene)-1-phenylpiperidin-4-one]
IC50 (L1210 (lymphoma) cells; [9]): 55 ± 7 µM
melting point: 152 to 155 °C
IC50 (B16 (melanoma) cells; [8]): 25 to 65 µM
IC50 (B16 (melanoma) cells; [10]): 37 ± 6 µM

SMILES: O=[N+]([O-])c1ccc2c(c1)S(=O)(=O)C=C2 [Stattic]
combination index analysis with cisplatin (DU145 cells; stattic:cisplatin ratio 1:5): lower levels of synergy within a narrower range of doses
inhibition of Stat3 tyrosine (705) phosphorylation (pStat3) (pStat3^Tyr705): much higher doses are required
IC50 [2]: 9.14 ± 2.74 µM
combination index analysis with cisplatin (A549 cells; stattic:cisplatin ratio 1:5): lower levels of synergy

More lines, main results first:

melting point: 142 to 146 °C
SMILES: COc1ccc(/C=C2\CN(c3ccccc3)C/C(=C\c3ccc(OC)c(O)c3)C2=O)cc1O [IE-5, 3,5-Di(3-hydroxy-4-methoxybenzylidene)-1-phenylpiperidin-4-one]
IC50 (L1210 (lymphoma) cells; [7]): 6 µM
IC50 (B16 (melanoma) cells; [8]): 19 µM

melting point: 139 to 143 °C
SMILES: COc1cc(/C=C2\CN(c3ccccc3)C/C(=C\c3ccc(O)c(OC)c3)C2=O)ccc1O [IE-6, 3,5-Di(4-hydroxy-3-methoxybenzylidene)-1-phenylpiperidin-4-one]
IC50 (L1210 (lymphoma) cells; [7]): 2.8 ± 0.4 µM
IC50 (B16 (melanoma) cells; [8]): 2.9 ± 0.4 µM

melting point: 144 to 148 °C
SMILES: COc1ccc(/C=C2\CN(c3ccccc3)C/C(=C\c3ccc(OC)c(OC)c3)C2=O)cc1OC [IE-7, 3,5-Di(3,4-dimethoxybenzylidene)-1-phenylpiperidin-4-one]
IC50 (L1210 (lymphoma) cells; [7]): 2.9 ± 0.9 µM
IC50 (B16 (melanoma) cells; [8]): 1.3 ± 0.1 µM
